No end group written: not given here.

Results on one sequence are retold here after article PMC6940896, “Development of a Highly Efficient Hybrid Peptide That Increases Immunomodulatory Activity Via the TLR4-Mediated Nuclear Factor-κB Signaling Pathway” (International Journal of Molecular Sciences, 2019).

In data set [1] the test system is CTX-immunosuppressed Balb/c mice. The experiment in a line: Body weight and immune organ indices in CTX-immunosuppressed mice. The data set is classed as in vivo, mouse. As to conditions: CTX 80 mg/kg ip days 1-3, peptide 10 mg/kg ip days 4-10, n = 12. An excerpt:
Female specific-pathogen-free (SPF) Balb/c mice (6-8 weeks of age, weighing 20 ± 2.0 g) were purchased from Charles River (Beijing, China). The mice were housed in a SPF environment at room temperature with a relative humidity of 55 ± 10% and allowed free access to food and water during the experiments. All of the animal protocols were approved by the Institutional Animal Care and Ethics Committee of the China Agricultural University (CAU20170430-4). […] Sigma-Aldrich, St. Louis, MO, USA) group, a LL-37 group, a Tα1 group, and a LTAa group. For the first 3 days, CTX (80 mg/kg mouse weight) was administered intraperitoneally once daily to establish the immunosuppressed animal model. From days 4 to 10 (7 days), peptides (10 mg/kg mouse weight) were administered intraperitoneally each day. The CTX group was only treated with CTX, and the control group was given sterile saline. The dose volume was 200 μL. Twenty-four hours after the last dose, the mice were killed and their tissues and blood collected for analysis. The body weight index was calculated in the following way:(2) Index (%)=final body weight-[…] body weight/initial body weight ×100% Spleen and thymus indices were calculated in the following way:(3) Index (mg/kg)=weight of thymus or spleen/body weight

The subject of the next data set is RAW264.7 cells. Put plainly: Cytokine production in RAW264.7 macrophages (ELISA). The data set is classed as cell-based, mouse. As to conditions: RAW264.7, 10 μg/mL peptide, 12 h (Figure 3 legend; method says 24 h), n = 5. The protocol:
RAW264.7 cells were stimulated with or without 10 μg/mL peptides for 24 h at 37 °C in a humidified incubator with 5% CO2. Levels of TNF-α, IL-6, and IL-1β in the culture supernatant were measured using enzyme-linked immunosorbent assay (ELISA) kits according to the manufacturer’s instructions
A general note: In an ELISA, binding on a coated surface is turned into a signal by an enzyme label.

A further data set deals with T1, TLR4/MD-2 (Mus musculus, UniProt Q9JHF9+Q9QUK6).
T1 construct: endogenous in cells; host or cells: RAW264.7
T1 sequence (Q9QUK6 26-835): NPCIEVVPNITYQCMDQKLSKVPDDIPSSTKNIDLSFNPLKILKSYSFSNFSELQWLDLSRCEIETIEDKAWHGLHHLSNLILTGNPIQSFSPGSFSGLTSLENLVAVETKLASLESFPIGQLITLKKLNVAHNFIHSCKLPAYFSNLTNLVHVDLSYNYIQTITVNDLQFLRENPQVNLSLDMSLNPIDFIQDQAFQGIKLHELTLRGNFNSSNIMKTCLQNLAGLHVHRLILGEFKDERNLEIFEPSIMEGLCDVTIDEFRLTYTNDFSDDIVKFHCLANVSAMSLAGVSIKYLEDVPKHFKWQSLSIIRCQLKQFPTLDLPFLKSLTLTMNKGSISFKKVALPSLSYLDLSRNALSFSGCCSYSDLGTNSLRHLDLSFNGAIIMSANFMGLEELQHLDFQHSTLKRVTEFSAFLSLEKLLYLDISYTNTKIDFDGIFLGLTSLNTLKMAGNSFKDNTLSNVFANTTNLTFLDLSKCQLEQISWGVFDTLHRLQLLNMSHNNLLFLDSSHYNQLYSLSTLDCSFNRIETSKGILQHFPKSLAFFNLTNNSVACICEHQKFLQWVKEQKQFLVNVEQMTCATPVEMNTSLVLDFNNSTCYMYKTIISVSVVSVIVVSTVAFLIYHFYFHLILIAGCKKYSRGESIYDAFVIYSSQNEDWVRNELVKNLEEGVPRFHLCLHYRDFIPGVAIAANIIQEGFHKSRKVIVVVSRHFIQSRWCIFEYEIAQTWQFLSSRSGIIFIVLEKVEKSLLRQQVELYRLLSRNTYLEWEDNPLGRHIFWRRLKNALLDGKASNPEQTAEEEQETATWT
T1 sequence (Q9JHF9 19-160): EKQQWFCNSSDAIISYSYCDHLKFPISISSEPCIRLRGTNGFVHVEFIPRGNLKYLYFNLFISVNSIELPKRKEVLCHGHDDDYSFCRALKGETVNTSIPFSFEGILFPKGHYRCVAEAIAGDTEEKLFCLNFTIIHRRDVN
Put plainly: Cytokine production in RAW264.7 cells with or without TLR4/MD-2 mAb pretreatment. In kind it is cell-based. As to conditions: then 10 μg/mL peptide 24 h, ELISA, n = 3. The protocol: RAW264.7 cells were treated with PBS or an anti-mouse mAbTLR4/MD-2 complex (MTS510 Ab) (eBioscience, San Diego, CA, USA) at 37 °C for 1 h, and RAW264.7 cells were treated with or without 10 μg/mL peptides for 24 h at 37 °C in a moist atmosphere (5% CO2, 95% air). Levels of TNF-α, IL-6, and IL-1β in the culture supernatant were detected by ELISA.

For the next data set, the system named is peritoneal macrophages. The experiment in a line: Peritoneal macrophage phagocytosis (neutral red uptake) in CTX-immunosuppressed mice. The data set is classed as in vivo, mouse. Conditions: peritoneal macrophages of mice, OD 540 nm, CTX 80 mg/kg ip days 1-3, peptide 10 mg/kg ip days 4-10, control group 55.67%, n = 12.
In data set [2] the test system is CTX-immunosuppressed Balb/c mice. The experiment in a line: Serum cytokine and immunoglobulin ELISA in CTX-immunosuppressed mice. The data set is classed as in vivo, mouse. As to conditions: peptide 10 mg/kg ip days 4-10, ELISA, n = 12. As to the method: Sigma-Aldrich, St. Louis, MO, USA) group, a LL-37 group, a Tα1 group, and a LTAa group. For the first 3 days, CTX (80 mg/kg mouse weight) was administered intraperitoneally once daily to establish the immunosuppressed animal model. From days 4 to 10 (7 days), peptides (10 mg/kg mouse weight) were administered intraperitoneally each day. The CTX group was only treated with CTX, and the control group was given sterile saline. The dose volume was 200 μL. Twenty-four hours after the last dose, the mice were killed and their tissues and blood collected for analysis. The body weight index was calculated in the following way:(2) Index (%)=final body weight-[…] body weight/initial body weight ×100% Serum was obtained from blood by centrifugation at 1000 × g for 20 min. Levels of TNF-α, IL-6, IL-1β, IgG, IgA, and IgM in the serum were detected by ELISA.

For another data set, the system named is splenocyte T lymphocytes. Put plainly: T lymphocyte subsets in splenocytes by flow cytometry. In kind it is in vivo, mouse. Conditions: versus group treated with CTX alone, peptide 10 mg/kg ip days 4-10, n = 12.
A short description of data set [3]: Ex vivo stability in plasma. In kind it is in vitro ADME. As to conditions: rat plasma, in vitro, 37 °C, HPLC, log-linear regression; mean ± SEM of three biological replicates; read-out: t1/2, half-life in plasma (converted). The protocol: The samples were collected into pre-chilled tubes containing 1 mL of acidic acetone (hydrochloric acid/acetone/H2O, 1:40:5, by volume). Subsequently, the mixture was centrifuged at 2 × 10^4 rpm at 4 °C for 20 min. The precipitates were dried in vacuo. The dried precipitates were dissolved in 0.5 mL of 1 M acetic acid. The peptide analysis was carried out according to the protocol for the study of Tα1 using HPLC [51]. The half-lives of the target peptides were calculated by a logarithm-linear regression analysis of the peptide concentrations.

Protocol for peritoneal macrophages: Peritoneal macrophages were aseptically obtained from the different groups of mice by peritoneal lavage with 5 mL ice-cold phosphate-buffered saline (PBS). The peritoneal macrophages were further isolated by incubating peritoneal exudate cells at 37 °C in a moist atmosphere (5% CO2, 95% air) for 3 h to allow the cells to adhere. The adherent cells were washed twice and collected as peritoneal macrophages.
The phagocytic capacity of the peritoneal macrophages was measured by the neutral red uptake method [52]. […] The OD was measured using a microplate reader at 540 nm. The phagocytic rate was calculated in the following way:(4) hagocytic rate (%)=OD540(sample)/OD540(control) ×100% where OD540 (sample) is the absorbance at 540 nm by peptide-treated cells and OD540 (control) is the absorbance at 540 nm by the cells without peptides treated.
Protocol for splenocyte T lymphocytes: The spleen was collected, ground, and passed through 40-μm-mesh cell strainers filled with PBS to harvest the cell suspension. The cells were stained with CD3- PerCP, CD4-APC, and CD8-FITC for 30 min at 4 °C for T lymphocyte measurements. The results were analyzed using a Guava® easyCyte^TM 6-21 system and Guavasoft 3.1.1 software (Millipore, Burlington, MA, USA).

On to IGKEFKRIVQRIKDFLRNLVPRTEKEKKEVVE [LTAa], for which, in data set [1], the body weight result is listed as “rapidly recovered their weight”; the “spleen and thymus index” value is listed as “reversed this effect”. The “TNF-α, IL-6 and IL-1β production/secretion” value in the data set on RAW264.7 cells is “remarkable increases”. The “TNF-α, IL-6 and IL-1β production, PBS pretreatment” value at TLR4/MD-2 (RAW264.7, PBS 1 h) is listed as “significant increase”. For the same sequence, at TLR4/MD-2 (RAW264.7, TLR4/MD-2 mAb (MTS510 Ab) 1 h), the “TNF-α, IL-6 and IL-1β production induced by LTAa after TLR4/MD-2 mAb pretreatment” value is recorded as “significantly inhibited”. For the same sequence, the macrophage phagocytic rate entry in the data set on peritoneal macrophages is recorded as “significantly higher phagocytic rates than those in the Tα1- or LL-37-treated groups”. Besides, the “serum TNF-α, IL-6 and IL-1β levels” value in data set [2] was “significantly higher TNF-α, IL-6, and IL-1β concentrations than those in the Tα1- or LL-37-treated groups”. In addition, the “CD4+:CD8+ T lymphocyte ratio” value with splenocyte T lymphocytes is on record as “higher”. Further, the half-life in data set [3] was 4.2 ± 1.13 h.
